These results are taken from publication PMC6904568, “Evaluation of binding and inhibition mechanism of dietary phytochemicals with sphingosine kinase 1: Towards targeted anticancer therapy” (Scientific Reports, 2019).

Data set [1] deals with T1, SphK1 (Homo sapiens, UniProt Q9NYA1).
T1 construct: His tag; made in house; host or cells: E. coli BL21-Gold (DE3)
Put plainly: Fluorescence binding studies (Trp quenching, modified Stern-Volmer). To be noted: for Binding constant Ka: fluorescence quenching, 25 °C, 4 µM SphK1; for Kd: from fluorescence binding constant, read-out: Dissociation constant KD. As to the method: Fluorescence quenching experiments were carried out on Jasco spectroflourimeter (FP-6200) using 5 mm quartz cuvette. The temperature was maintained at 25 ± 0.1 °C by external thermostated peltier device. Stock solution of ligands was prepared in DMSO and diluted to a working concentration of 50 µM in Tris buffer just prior to taking measurements. Protein solution (4 µM) was titrated with increasing concentrations of ligand and the fluorescence emission spectrum was recorded in the range of 300–400 nm by keeping the excitation wavelength constant at 280 nm. The excitation and emission slit widths were kept at 10 nm. The final spectra were obtained by subtracting with the corresponding blank. For data analysis, fluorescence intensity at λmax was plotted against [ligand, μM] and then modified Stern-Volmer equation (Eq. 1) was used to derive binding parameters viz., binding constant (Ka) and number of binding sites (n) per molecule of protein for ligand-SphK1 system.1 log(F0−F/F)=logKa+nlog[Q]
To validate our docking results, the binding affinity of selected natural compounds with SphK1 was calculated using fluorescence measurements. A number of molecular interactions, including formation of an excited charge-transfer complex, intersystem crossing to the triplet state, molecular rearrangements, and ground-state complex formation between the fluorophore and quencher can lead fluorescence quenching. […] 4 µM of SphK1 was titrated by the successive addition of selected natural compounds from a 1.0 mM stock solution of ligands. The intrinsic fluorescence spectra were then collected in the range of 300–400 nm by keeping the excitation wavelength at 280 nm. The concentration of ligands was varied from 0 to 50 µM to obtain the saturation point.

Data set [2] deals with T1, SphK1. Put plainly: Isothermal titration calorimetry. The class given is binding. As to the method: Binding affinity of SphK1 to quercetin was determined by using VP-ITC microcalorimeter from MicroCal, Inc (GE, MicroCal, USA). Protein sample was prepared by extensively dialyzing it against Tris buffer (20 mM Tris-HCl, pH 8.0 and 100 mM NaCl). Stock solution of compound was diluted in the last dialyzing buffer to avoid any baseline error. Equal amount of DMSO (1.0% v/v) was added to the protein solution to prevent signal stability problems during ITC measurements. 15 µM SphK1, which was kept in the sample cell with an effective volume of 2 ml, was titrated with 750 µM of compound filled in the titration calorimetry syringe. A programmed titration was performed with a first false injection of 2 µl followed by 24 successive injections of 10 µl ligand each at 300 seconds interval. The temperature of the sample and reference cell was isothermally maintained at 25 °C, and the syringe was stirred at 307 rpm during the experiment. Heat of dilution of compound into buffer solution (no protein) was also measured and subtracted from the protein’s titration data. The binding isotherm obtained was fitted with in-built origin ‘binding site’ model to derive the thermodynamic parameters viz., stoichiometry of binding (n), enthalpy change (ΔH) and association constant (Ka).
On the technique in general: Isothermal titration calorimetry measures the heat released or taken up as one component is titrated into another.

The target of data set [3] is T1, SphK1. The data set can be described thus: ATPase inhibition assay (malachite green, BIOMOL Green). It counts as biochemical. To be noted: 2 µM SphK1, 150 µM ATP, 25 °C; read-out: IC50 (50% of ATPase inhibition). As to the method:
ATPase activity of purified SphK1 was checked by malachite green-based (BIOMOL® Green reagent, Enzo Life sciences) microtitre-plate assay. Fixed (2 µM) amount of protein was incubated with assay buffer (20 mM Tris-HCl, pH 8.0 and 100 mM NaCl) containing 10 mM MgCl2 and increasing concentrations of ATP for 30 minutes at 25 °C. The reaction was terminated by the addition of malachite green reagent followed by incubation for 20 minutes for colour development. The absorbance of each well was measured at 620 nm on a multiplate ELISA reader. Standard phosphate curve was prepared as described by manufacturer’s protocol and used to quantity the amount of free inorganic released from ATP by kinase activity. Thereafter, ATPase inhibition assay for SphK1 was performed in the presence of compounds. Firstly, Protein (2 µM) was pre-incubated with increasing concentrations of ligand at room temperature for 60 minutes in 96-well plate. 10 mM MgCl2 and 150 µM freshly prepared ATP was then added to the reaction mixture and incubated for 30 minutes at 25 °C. To terminate the reaction, BIOMOL® reagent was added and incubated for 20 minutes followed by absorbance measurement at 620 nm. The amount of free inorganic released was determined with the help of standard phosphate curve as described. All the measurements were performed in triplicates.

The test system of data set [4] is HepG2 cells. Put plainly: Anti-proliferative potential on liver cancer line. The class given is cell-based. The settings on record: Homo sapiens, data not shown, read-out: IC50, growth inhibition of cancer cells.
Data set [5] has as its system A549 cells. Put plainly: Anti-proliferative potential on lung cancer line. It counts as cell-based. The settings on record: Homo sapiens, data not shown, read-out: IC50, growth inhibition of cancer cells.
Data set [6] concerns HEK293 cells.
Setting [7] is: ITC, 25 °C, sequential binding, site 1.
Setting [8] is: ITC, 25 °C, sequential binding, site 2.
The mark [9] stands for this setting: ITC, 25 °C, sequential binding, site 3.
[10] abbreviates: ITC, 25 °C, single binding site model.

Structures are written as SMILES. Values joined by “and” are separate entries in the source; they are usually repeats but may differ in a detail not shown here. Identical values can stand only once.

T1 sequence (Q9NYA1 whole entry): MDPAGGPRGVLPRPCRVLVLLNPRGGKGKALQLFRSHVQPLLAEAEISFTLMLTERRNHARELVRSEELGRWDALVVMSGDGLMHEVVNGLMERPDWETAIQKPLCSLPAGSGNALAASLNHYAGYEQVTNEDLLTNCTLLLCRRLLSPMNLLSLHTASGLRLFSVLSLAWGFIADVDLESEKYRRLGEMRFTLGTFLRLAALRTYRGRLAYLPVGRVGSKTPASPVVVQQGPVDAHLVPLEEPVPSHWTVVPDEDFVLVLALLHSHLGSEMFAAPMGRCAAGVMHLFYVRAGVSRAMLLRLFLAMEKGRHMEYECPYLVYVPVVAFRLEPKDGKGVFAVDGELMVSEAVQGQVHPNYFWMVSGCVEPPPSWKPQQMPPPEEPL

In general, IC50 refers to the concentration that gives 50% inhibition. Take `O=c1c(O)c(-c2ccc(O)c(O)c2)oc2cc(O)cc(O)c12` [Quercetin, quercetin]: the “Binding constant Ka” value in data set [1] stood at 438000 M⁻¹. The Kd is 2.28 µM in data set [1]; 125 µM in data set [2]; 16.9 µM in data set [2] (ITC, 25 °C, sequential binding, site 1, read-out: Dissociation Constant KD1); 4.2 µM in data set [2] (ITC, 25 °C, sequential binding, site 2, read-out: Dissociation Constant KD2); 94.3 µM in data set [2] (ITC, 25 °C, sequential binding, site 3, read-out: Dissociation Constant KD3); 10.7 µM in data set [2] (ITC, 25 °C, sequential binding, site 4, read-out: Dissociation Constant KD4). The “Association constant Ka1” value in data set [2] (setting [7]) is recorded as “Ka1 = 5.89 × 10^4 ± 5.0 × 10^3 M^−1”. Besides, the “Enthalpy Change ΔH1” value in data set [2] (setting [7]) is on record as “ΔH1 = −5204 ± 435 cal/mol”. In addition, in data set [2] (setting [7]), the ΔS1 entry is on record as “ΔS1 = 4.37 cal/mol/deg”. Further, the “Association constant Ka2” value in data set [2] (setting [8]) is listed as “Ka2 = 2.36 × 10^5 ± 8.0 × 10^3 M^−1”. The “Enthalpy Change ΔH2” value in data set [2] (setting [8]) was “ΔH2 = −9883 ± 696 cal/mol”. For the same compound, in data set [2] (setting [8]), the ΔS2 result is given as “ΔS2 = −8.57 cal/mol/deg”. Further, in data set [2] (setting [9]), the “Association constant Ka3” value is “Ka3 = 1.06 × 10^4 ± 4.0 × 10^2 M^−1”. For the same compound, in data set [2] (setting [9]), the “Enthalpy Change ΔH3” value is “ΔH3 = 3829 ± 2.18 × 10^3 cal/mol”. In data set [2] (setting [9]), the ΔS3 result is given as “ΔS3 = 32.3 cal/mol/deg”. Further, the ΔS4 result in data set [2] (ITC, 25 °C, sequential binding, site 4) is reported as “ΔS4 = −294 cal/mol/deg”. In addition, the values for the IC50 in data set [3], in data set [4] and in data set [5] were roughly 2.8 µM, 49.1 µM and 55.9 µM, respectively. Further, in data set [6], the “Toxicity towards normal counterparts” value is listed as “did not impart any toxicity”.

Regarding `COc1cc(CNC(=O)CCCC/C=C/C(C)C)ccc1O` [Capsaicin, capsaicin], in data set [1], the “Binding constant Ka” value amounted to 15300 M⁻¹ and the Kd was found to be 65.4 µM. Further, in data set [2] (setting [10]), the “Association constant Ka” value was 102000 ± 66200 M⁻¹, the “Enthalpy Change ΔH” value was −1.00 × 10^4 ± 727.6 cal/mol and the ΔS is reported as −10.8 cal/mol/deg. Further, in data set [2] (ITC, 25 °C, single binding site model, read-out: Dissociation Constant KD), the Kd stood at 9.8 µM. For the same compound, in data set [3], the IC50 is ~27 µM and 27 µM.
